Data on 23 molecules can be found in PubChem BioAssay AID328 (DTP/NCI, 2004).

This assay concerns BDF1 mice, P388 leukemia ip, median survival T/C. Kind of assay: NCI In Vivo Anticancer Drug Screen. Data for tumor model P388 Leukemia (intraperitoneal) in B6D2F1 (BDF1) mice. The conditions noted are these: endpoint: median survival time, higher = longer survival. A digest of the protocol:
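Read-out is survival of treated animals expressed relative to the vehicle group, as a T/C ratio.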

Where [1] appears, read: dose: 6.25 mg/kg/injection, schedule: Q01DX009 (ip), vehicle: Klucel (hydroxypropylcellulose) (HPC).
Where [2] appears, read: dose: 50.0 mg/kg/injection, schedule: Q01DX009 (ip), vehicle: Klucel (hydroxypropylcellulose) (HPC).
[3] abbreviates: dose: 100.0 mg/kg/injection, schedule: Q01DX009 (ip), vehicle: Klucel (hydroxypropylcellulose) (HPC).
Setting [4] is: dose: 200.0 mg/kg/injection, schedule: Q01DX009 (ip), vehicle: Klucel (hydroxypropylcellulose) (HPC).
[5] abbreviates: dose: 100.0 mg/kg/injection, schedule: Q04DX003 (ip), vehicle: saline sonified.
Setting [6] is: dose: 400.0 mg/kg/injection, schedule: Q04DX003 (ip), vehicle: saline sonified.
[7] abbreviates: dose: 100.0 mg/kg/injection, schedule: Q04DX003 (ip), vehicle: saline with Tween-80.
Setting [8] is: dose: 200.0 mg/kg/injection, schedule: Q04DX003 (ip), vehicle: saline with Tween-80.
The mark [9] stands for this setting: dose: 400.0 mg/kg/injection, schedule: Q04DX003 (ip), vehicle: saline with Tween-80.
[10] abbreviates: dose: 50.0 mg/kg/injection, schedule: Q01DX009 (ip), vehicle: saline with Tween-80.
Setting [11] is: dose: 100.0 mg/kg/injection, schedule: Q01DX009 (ip), vehicle: saline with Tween-80.
[12] abbreviates: dose: 200.0 mg/kg/injection, schedule: Q01DX009 (ip), vehicle: saline with Tween-80.
Setting [13] is: dose: 400.0 mg/kg/injection, schedule: Q01DX009 (ip), vehicle: saline with Tween-80.

Values joined by “and” are separate entries in the source; they are usually repeats but may differ in a detail not shown here. Equal values may be shown once. Toxic doses and inconclusive results are not listed.

For `CC(CC#N)NC(=O)C1CCC(N)=N1` (centres undefined), the T/C reads like this: (dose: 100.0 mg/kg/injection, schedule: Q01DX009 (ip), vehicle: saline) 111 % of control; (dose: 400.0 mg/kg/injection, schedule: Q01DX009 (ip), vehicle: saline) 103 % of control.

Consider `CN=C(N)c1ccc(NC(=O)c2ccc(C(=O)Nc3ccc(C(N)=NC)cc3)c(N)c2)cc1`, for which the T/C (dose: 2.0 mg/kg/injection, schedule: Q04DX003 (ip), vehicle: Klucel (hydroxypropylcellulose) (HPC)) is 107 % of control; the T/C (dose: 2.6 mg/kg/injection, schedule: Q01DX009 (ip), vehicle: Klucel (hydroxypropylcellulose) (HPC)) is 190 % of control; the T/C (dose: 3.0 mg/kg/injection, schedule: Q04DX003 (ip), vehicle: Klucel (hydroxypropylcellulose) (HPC)) is 115 % of control; the T/C (dose: 4.0 mg/kg/injection, schedule: Q01DX009 (ip), vehicle: Klucel (hydroxypropylcellulose) (HPC)) is 263 % of control; the T/C (dose: 6.0 mg/kg/injection, schedule: Q01DX009 (ip), vehicle: Klucel (hydroxypropylcellulose) (HPC)) is 272 % of control; the T/C under setting [1] was 150 % of control. Also, the T/C reads like this: (dose: 8.0 mg/kg/injection, schedule: Q04DX003 (ip), vehicle: Klucel (hydroxypropylcellulose) (HPC)) 150 % of control and 175 % of control; (dose: 12.0 mg/kg/injection, schedule: Q04DX003 (ip), vehicle: Klucel (hydroxypropylcellulose) (HPC)) 170 % of control and 190 % of control; (dose: 12.5 mg/kg/injection, schedule: Q04DX003 (ip), vehicle: Klucel (hydroxypropylcellulose) (HPC)) 169 % of control; (dose: 18.0 mg/kg/injection, schedule: Q04DX003 (ip), vehicle: Klucel (hydroxypropylcellulose) (HPC)) 150 % of control and 209 % of control.

On to `O=C1c2ccccc2-c2ccc(Br)c3cccc1c23`, for which the T/C runs as follows: under setting [2], 100 % of control; under setting [3], 100 % of control; under setting [4], 100 % of control.

Consider `CC1C(=O)OC2CCN3CC4OC4(COC(=O)C(C)(O)C1(C)O)C23` (centres undefined), for which the T/C under setting [2] is 95 % of control; the T/C under setting [3] is 95 % of control; the T/C under setting [5] is 108 % of control; the T/C under setting [4] was 100 % of control; the T/C under setting [6] was 95 % of control.

For `C(=C\c1ccc2ccccc2n1)/c1ccc2c(c1)OCO2`, the T/C was 100 % of control under setting [7], 100 % of control under setting [8] and 88 % of control under setting [9].

As to `N#Cc1ccc(CC(O)c2ccc(Cl)cc2)cc1` (centres undefined), the T/C is 108 % of control under setting [10], 89 % of control under setting [11] and 96 % of control under setting [12].

As to `CS(=O)(=O)N(c1ccccc1[N+](=O)[O-])S(C)(=O)=O`, the T/C runs as follows: under setting [11], 109 % of control; under setting [7], 87 % of control; under setting [12], 100 % of control; under setting [8], 100 % of control; under setting [13], 104 % of control; under setting [9], 104 % of control.

For `COC1C(OC(=O)c2ccc(C)[nH]2)C(O)C(Oc2ccc3c(O)c(NC(=O)c4c[nH]c(C(=O)Nc5c(O)c6ccc(OC7OC(C)(C)C(OC)C(OC(=O)c8ccc(C)[nH]8)C7O)c(C)c6oc5=O)c4C)c(=O)oc3c2C)OC1(C)C` (centres undefined), the T/C is, setting by setting: under setting [11], 90 % of control; under setting [12], 109 % of control; under setting [13], 163 % of control.

As to `O=C(Nc1ccccc1)C1(Br)CC2(C1)CC(Br)(C(=O)Nc1ccccc1)C2` (centres undefined), the T/C is 92 % of control (dose: 100.0 mg/kg/injection, schedule: Q01DX001 (ip), vehicle: saline with Tween-80) and 99 % of control (dose: 200.0 mg/kg/injection, schedule: Q01DX001 (ip), vehicle: saline with Tween-80).

For the molecule `CC(C)c1ncc([N+](=O)[O-])n1C`, the T/C reads like this: under setting [11], 100 % of control; under setting [12], 87 % of control; under setting [13], 100 % of control.

Regarding `CC(C(=O)c1cc(O)c(O)cc1C(O)(C(F)(F)F)C(F)(F)F)C(O)(C(F)(F)F)C(F)(F)F` (centres undefined), the T/C is 100 % of control under setting [11], 100 % of control under setting [12] and 95 % of control under setting [13].

In the case of `O=[N+]([O-])c1ccc(N/N=C/c2ccccn2)cc1`, the T/C was 104 % of control (dose: 100.0 mg/kg/injection, schedule: Q04DX003 (ip), vehicle: Klucel (hydroxypropylcellulose) (HPC)); 100 % of control (dose: 200.0 mg/kg/injection, schedule: Q04DX003 (ip), vehicle: Klucel (hydroxypropylcellulose) (HPC)); 109 % of control (dose: 400.0 mg/kg/injection, schedule: Q04DX003 (ip), vehicle: Klucel (hydroxypropylcellulose) (HPC)).

As to `COc1ccc(OC)c(NC(=O)C2CC2)c1`, the T/C is 100 % of control (dose: 75.0 mg/kg/injection, schedule: Q01DX009 (ip), vehicle: saline with Tween-80); 109 % of control under setting [5]; 100 % of control (dose: 150.0 mg/kg/injection, schedule: Q01DX009 (ip), vehicle: saline with Tween-80); 113 % of control (dose: 200.0 mg/kg/injection, schedule: Q04DX003 (ip), vehicle: saline sonified); 100 % of control (dose: 300.0 mg/kg/injection, schedule: Q01DX009 (ip), vehicle: saline with Tween-80); 100 % of control under setting [6].

Consider `CC1(C)C2=CCCC3(OCCO3)C2(C)CCC1O` (centres undefined), for which the T/C was 100 % of control under setting [11], 100 % of control under setting [12] and 90 % of control under setting [13].

`CN(C)c1ccc(/C=N/Nc2ccc(C(C#N)=C(C#N)C#N)cc2)cc1`: the T/C under setting [10] is 101 % of control, the T/C under setting [11] was 89 % of control and the T/C under setting [12] is 86 % of control.

Regarding `CC1=CCCC(C)C12CCC(C(C)(C)O)C2` (centres undefined), the T/C by setting is: under setting [11], 92 % of control; under setting [7], 100 % of control; under setting [12], 92 % of control; under setting [8], 113 % of control; under setting [9], 118 % of control.

Consider `NC(COc1ccccc1)Cc1ccccc1` (centres undefined), for which the T/C is, setting by setting: (dose: 25.0 mg/kg/injection, schedule: Q04DX003 (ip), vehicle: saline with Tween-80) 113 % of control; (dose: 25.0 mg/kg/injection, schedule: Q04DX003 (ip), vehicle: suspension in saline) 90 % of control; (dose: 50.0 mg/kg/injection, schedule: Q04DX003 (ip), vehicle: saline with Tween-80) 123 % of control; (dose: 50.0 mg/kg/injection, schedule: Q04DX003 (ip), vehicle: suspension in saline) 90 % of control; under setting [7], 105 % of control; (dose: 100.0 mg/kg/injection, schedule: Q04DX003 (ip), vehicle: saline) 109 % of control. Where the note is “dose: 100.0 mg/kg/injection, schedule: Q04DX003 (ip), vehicle: suspension in saline”, the T/C is 98 % of control.

As to `CCCCCCC(O)CCCCCCCCCCC(=O)O` (centres undefined), the T/C by setting is: under setting [11], 95 % of control; under setting [12], 95 % of control; under setting [13], 100 % of control.

As for `CC(=N\O)/C(C)=N/O.CC(=N\O)/C(C)=N/O.[Pd]`, the T/C was 100 % of control (dose: 1.57 mg/kg/injection, schedule: Q01DX009 (ip), vehicle: Klucel (hydroxypropylcellulose) (HPC)); 100 % of control (dose: 3.13 mg/kg/injection, schedule: Q01DX009 (ip), vehicle: Klucel (hydroxypropylcellulose) (HPC)); 100 % of control under setting [1].

Regarding `CC(NC(=O)/C=C\C(=O)O)c1ccccc1` (centres undefined), the T/C is, setting by setting: under setting [7], 100 % of control; under setting [8], 91 % of control; under setting [9], 112 % of control.

On to `O=C1OCCC1C(=O)C(O)(C(F)(F)F)C(F)(F)F` (centres undefined), for which the T/C (dose: 100.0 mg/kg/injection, schedule: Q01DX001 (ip), vehicle: other) is 90 % of control; the T/C (dose: 200.0 mg/kg/injection, schedule: Q01DX001 (ip), vehicle: other) is 90 % of control; the T/C (dose: 400.0 mg/kg/injection, schedule: Q01DX001 (ip), vehicle: other) is 100 % of control.

For `O=C1c2c(O)ccc(O)c2C(=O)c2c(NCCOCCO)ccc(NCCOCCO)c21`, the T/C is 102 % of control (dose: 25.0 mg/kg/injection, schedule: Q01DX005 (ip), vehicle: saline with Tween-80); 100 % of control (dose: 50.0 mg/kg/injection, schedule: Q01DX005 (ip), vehicle: saline with Tween-80); 118 % of control (dose: 100.0 mg/kg/injection, schedule: Q01DX005 (ip), vehicle: saline with Tween-80); 109 % of control (dose: 200.0 mg/kg/injection, schedule: Q01DX005 (ip), vehicle: saline with Tween-80).

Regarding `Cc1ccc(N)c(CSc2ccccc2)c1`, the T/C is, setting by setting: (dose: 50.0 mg/kg/injection, schedule: Q04DX002 (ip), vehicle: saline with Tween-80) 95 % of control; (dose: 100.0 mg/kg/injection, schedule: Q04DX002 (ip), vehicle: saline with Tween-80) 97 % of control; (dose: 200.0 mg/kg/injection, schedule: Q04DX002 (ip), vehicle: saline with Tween-80) 98 % of control.
